Data reported in patent US7214716B2, “Agonists specific for the peripheral cannabinoid receptor” (Yissum Research Development Co. of the Hebrew University of …, priority 2000, dated 2007).

Experiments:
female C57/BL6 mice = system: female C57/BL6 mice
Procedure: This difference in binding is reflected in the results of the pharmacological assays. […] Such effects are considered to be mediated by the CBI receptor.
R. (1993) Eur. J. Pharmacol. 231, 313–314]. At various times after injection mice were tested in four assays consecutively. The four assays were (1) motor activity (ambulation and rearing) in an open field (20×30 cm, divided into 12 squares of equal size) for 8 min; (2) immobility (“catalepsy”) on a ring of 5.5 cm diameter for 4 min; (3) body temperature with a telethermometer (Yellow Springs Instruments Co.); and (4) analgesia on a hot plate maintained at 55° C., measured as the latency (in seconds) until the first hind paw lick or jump from the plate (the latter response was rarely observed) with a maximum of 45 s.

female Sabra mice = assay: Inhibition of intestinal motility (fecal pellets voided over 2 hr); type: in vivo, mouse
Procedure: Intestinal motility was assessed every 15 min (over a 2 hr period) by the cumulative number of fecal pellets voided in a two hour period after separating the mice into individual cages. […] By 90 min all treated groups differed from controls.
Rectal temperature was also recorded as a measure of central activity.

anesthetized rats = assay: Blood pressure assay in anesthetized cannulated rats; type: in vivo, rat
Procedure: Systemic blood pressure was monitored in male rats (Sabra strain, 270–350 g). A chronic cannula (P 50, Clay Adams) was implanted into the femoral artery under pentobarbital anesthesia (60 mg/kg). The jugular vein was cannulated for drug administration. The arterial cannula was attached to a pressure transducer (Db23, Statham City) and the transducer was connected to a data acquisition system (CODAS software and scroller card, Dataq, Ohio). Pressure was sampled at a rate of 1/s.
Recordings were taken for 30–60 min before treatment.

[1] = system: arachidonic acid-induced swelling of the ear in female Sabra mice; assay: Arachidonic acid-induced ear inflammation in the mouse; type: in vivo; conditions: for arachidonic acid-induced ear swelling: injected 30 to 90 min before arachidonic acid
Procedure: The other ear was treated with […] of EtOH and served as a control. Ear swelling was assessed by measuring ear thickness with a dial thickness gauge (Mitutoyo, Japan) just before treatment and every 15 min after A′A application for 90 min. […] N=5 for each treatment group.
Ear inflammation was measured by assessing ear tissue swelling after topical application of arachidonic acid. […] J., Wagner, B., Ballaron, S. & De Young, L. M. (1984) J. Invest. Dernlatol. 82, 367–371]. […] The opposite ear served as a control ([…] ethanol). Ear thickness was determined (in 0.01 mm units) every 15 min for 90 min starting immediately after arachidonic acid application using a dial thickness gauge (Mitutoyo, Japan).

[2] = system: formalin-induced peripheral pain in mice; assay: Formalin test for peripheral pain; type: in vivo, mouse
Procedure: Pain was assessed as the total number of licks of the injected hindpaw recorded for the duration of one hr. Early (5 min) and late (25–60 min) phase pain were observed as described in Calignano, A., La Rana, G., Giuffrida, A. & Piomelli, D. (1998) Nature (London) 394, 277–280.
Pain mediated by the peripheral nervous system, was tested in the “formalin test” for cutaneous (peripheral) pain [Tjolson, A., Berge, O-G., Hunskaar, S., Rosland, J. H. and Hole, K. (1992) Pain, 51, 5–17; Calignano, A., La Rana, G., Giuffrida, A & Piomelli, D. (1998) Nature (London) 394, 277–280; and Jagger, S. I., Hasnie, F. S., Sellaturay, S. and Rice, A.S.C. (1998) Pain 76, 189–199]. […] Immediately after formalin administration pain was assessed every 5 min for 1 hr by the number of times the animal licks the formalin-injected paw.

[3] = system: acetic acid induced inflammatory bowel disease in male Sprague Dawley rats; assay: Acetic acid induced inflammatory bowel disease; type: in vivo, rat
Procedure: Animals were clinically followed for 1 week and body weight, presence of blood in the stool, and stool consistency were monitored and recorded daily and scored on a scale of 0–4 according to the scale provided in Table 1 [Murthy et al., Dig. Dis. Sci., 38(9), 1722–1734, (1993)].
Seven days post disease induction animals were euthanized with phenobarbital (100 mg/kg i.p.), the whole colon excised, slit longitudinally, and examined under a magnifying glass. Any visible damage to the colon was recorded and scored.
Clinical outcome was analyzed using analysis of variance (ANOVA) followed by Duncan's post hoc test. A non-parametric test (Wilcox Rank Sum Test) was used to evaluate the gross pathology findings.

[4] = system: experimental autoimmune arthritis in CD-1 male mice; assay: Experimental autoimmune arthritis (collagen type 2 in complete Freund's adjuvant); type: in vivo, mouse
Procedure: Experimental autoimmune arthritis is induced in animals by immunization with collagen type 2 in complete Freund's adjuvant.
Adult CD-1 male mice (27–33 gr), at least five per treatment group, are used in the study. Each animal is administered 100 μg/ml collagen type 2 in 0.1 mL complete Freund's adjuvant. The collagen is administered subcutaneously into the base of the tail. The volume of each hind paw is measured using a plethysmometer (commercially available from Hugo Basill of Italy) before collagen administration and on days 1, 4, 7, 10, 13, and 16 of treatment (30 minutes after drug treatment). […] All treatments are administered intraperitoneally. […] The same procedure is performed with blank cosolvent. Diclofenac is prepared at Pharmos, as a solution of 1 mg/ml. At the same time the paws are measured they are also clinically evaluated according to the method of R. O Williams, Proc. Natl. Acad. Sci. USA: 89: 9784–9788, wherein 0=normal, 1=slight swelling and erythema, 2=pronounced edematous swelling, and 3=joint rigidity.
The major arthritis related sign that is evident in experimental autoimmune arthritis is swelling of the paws. […] The differences are compared using a non parametric analysis (Wilcoxon Rank Sum Test).

EAE in Lewis rats = assay: Experimental autoimmune encephalomyelitis (EAE); type: in vivo, rat; conditions: intravenous, treatment from day 10 to day 18 post induction
CB2 receptor = CB2 receptor (Homo sapiens, UniProt P34972); conditions: background, known compound; cited from earlier work
CB2 receptor, sequence (P34972 whole entry): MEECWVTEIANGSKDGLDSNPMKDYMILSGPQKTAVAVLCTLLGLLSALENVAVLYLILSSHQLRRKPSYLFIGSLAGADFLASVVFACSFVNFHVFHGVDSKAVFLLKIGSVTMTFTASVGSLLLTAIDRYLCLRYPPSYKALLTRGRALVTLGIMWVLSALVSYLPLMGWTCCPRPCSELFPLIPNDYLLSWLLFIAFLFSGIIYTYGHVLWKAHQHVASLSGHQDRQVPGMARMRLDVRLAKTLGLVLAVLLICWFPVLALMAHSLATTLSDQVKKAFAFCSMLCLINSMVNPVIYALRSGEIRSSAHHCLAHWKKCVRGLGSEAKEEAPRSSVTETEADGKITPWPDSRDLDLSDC

[5] = 40 mg/kg i.p., tested 10, 30 or 150 min after administration

Compound: CCCCCCC(C)(C)c1cc(OC)c([C@H]2C=C(CO)[C@H]3CC2C3(C)C)c(OC)c1 (single isomer, unassigned; (+)) [HU-308, (+)-(1-a-H,-(3-H,5-a-H)-4-(2,6-dimethoxy-4-(1,1-dimethylheptyl)phenyl]-6,6-dimethylbicycloj3.1.1]hept-2-ene-2-carbinol]
- activity in an open field trial (ambulation, rearing) (female C57/BL6 mice; [5]): no decrease in their activity in an open field trial
- analgesia on a hot plate (female C57/BL6 mice; [5]): no analgesia on a hot plate
- body temperature (female C57/BL6 mice; [5]): no reduction in body temperature
- catalepsy (immobility on a ring) (female C57/BL6 mice; [5]): no catalepsy
- activity in the tetrad of behavioral tests specific for THC-type CNS activity (female C57/BL6 mice; mice, summary): no activity
- inhibition of intestinal mobility (female Sabra mice; 20 mg/kg i.p., mice): complete inhibition of intestinal mobility
- number of fecal boli voided vs controls (female Sabra mice; 100 mg/kg i.p., after 75 min): significantly fewer boli than controls
- inhibition of intestinal motility in presence of CB2 antagonist SR144528 (female Sabra mice; HU-308 plus SR144528): in part blocked this effect
- effect on blood pressure (anesthetized rats; 30 mg/kg i.v., anesthetized cannulated rats): lowers blood pressure
- hypotensive effect after CB1 antagonist SR 141716A (anesthetized rats; SR141716A 3 mg/kg injected 5 min prior to HU-308 30 mg/kg i.v.): not by the CB1 antagonist SR 141716A
- hypotensive effect after CB2 antagonist SR 144528 (anesthetized rats; SR144528 1 mg/kg injected 5 min prior to HU-308 30 mg/kg i.v.): blocked by the CB2 antagonist SR 144528
- time for blood pressure effect to return to normal after administration (anesthetized rats; i.v. bolus, preliminary observations): < 30 min
- effect on blood pressure, lower doses (anesthetized rats; i.v. doses lower than 30 mg/kg): did not have a significant effect
- arachidonic acid-induced ear swelling ([1]; 50 mg/kg i.p.): significant reduction of arachidonic acid-induced ear swelling
- anti-inflammatory effect of HU-308 after CB1 antagonist SR 141716A ([1]; SR 141716A 5 mg/kg administered 15 min before HU-308 50 mg/kg i.p.): did not prevent the anti-inflammatory effect of HU-308
- anti-inflammatory effect of HU-308 after CB2 antagonist SR 144528 ([1]; SR 144528 0.5 mg/kg before HU-308 50 mg/kg i.p.): reduced the anti-inflammatory effect of HU-308
- formalin-induced peripheral pain (licks of injected hindpaw), late phase ([2]; 50 mg/kg i.p., 90 min before formalin, late phase (25-60 min)): reduced peripheral pain during the late phase of pain behavior
- formalin-induced peripheral pain, early versus late phase ([2]; 50 mg/kg i.p., early (5 min) and late (25-60 min) phase): effects were only observed during the late phase
- peripheral analgetic effect after CB1 antagonist SR 141716A ([2]; SR 141716A injected 15 min before HU-308): not by SR 141716A
- peripheral analgetic effect after CB2 antagonist SR 144528 ([2]; SR144528 injected 15 min before HU-308 50 mg/kg i.p.): prevented by SR 144528
- severity of acid induced inflammatory bowel disease ([3]; 10 and 20 mg/kg i.p. daily for seven days): can reduce the severity of acid induced inflammatory bowel disease
- reduction of pathological lesion severity in the gastrointestinal tract (gross pathology score) compared to vehicle ([3]; i.p. daily for 7 days, p<0.05 for 10 mg/kg, p=0.052 for 20 mg/kg): 35%
- incidence and severity of swelling of the paws ([4]; 2-15 mg/kg i.p. every three days or once daily): decreased incidence and severity of swelling of the paws
- mean clinical score of EAE (EAE in Lewis rats): diminution of mean clinical score

Compound: C=C1CC[C@@H]2[C@@H](C1)c1c(OC)cc(C(C)(C)CCCCCC)cc1OC2(C)C [L-759,656]
- CB1/CB2 binding ratio (CB2 receptor): > 1000

Compound: Cc1c(C(=O)NN2CCCCC2)nn(-c2ccc(Cl)cc2Cl)c1-c1ccc(Cl)cc1 [SR 141716A]
- arachidonic acid-induced ear swelling, antagonist by itself ([1]; 5 mg/kg i.p., alone): by itself reduced arachidonic acid-induced ear swelling

Compound: O=C(O)Cc1ccccc1Nc1c(Cl)cccc1Cl [diclofenac, reference compound]
- paw volume compared to vehicle ([4]; 10 mg/kg i.p. every 3 days, positive control): smaller paw volume compared to the vehicle treated rats, but this difference is not statistically significant

Compound: COc1ccc2c(c1)c(CC(=O)O)c(C)n2C(=O)c1ccc(Cl)cc1 [indomethacin]
- arachidonic acid-induced ear swelling ([1]; 20 mg/kg i.p.): significant reduction of arachidonic acid-induced ear swelling
- anti-inflammatory effect compared with HU-308 (50 mg/kg) ([1]; indomethacin 20 mg/kg i.p.): greater than that produced by HU-308

Compound: SR 144528
- anti-inflammatory effect, antagonist by itself ([1]; 0.5 mg/kg, alone): did not by itself induce an anti-inflammatory effect
